Assay results from ChEMBL document CHEMBL3044826, “Design, synthesis and biological evaluation of some novel substituted 2-mercapto-3-phenethylquinazolines as antitumor agents” (2013).

Legend:
Type in all cases: functional
UO-31 = experiment: Cytotoxicity against Homo sapiens (human) UO31 cells assessed as growth inhibition at 10 uM after 48 hr by coulter counter analysis; details: UO-31, 48 h, read-out: GI
TK-10 = experiment: Cytotoxicity against Homo sapiens (human) TK10 cells assessed as growth inhibition at 10 uM after 48 hr by coulter counter analysis; details: TK-10, 48 h, read-out: GI
SN12C = experiment: Cytotoxicity against Homo sapiens (human) SN12C cells assessed as growth inhibition at 10 uM after 48 hr by coulter counter analysis; details: read-out: GI
RXF 393 = experiment: Cytotoxicity against Homo sapiens (human) RXF393 cells assessed as growth inhibition at 10 uM after 48 hr by coulter counter analysis; details: RXF 393, 48 h, read-out: GI
CAKI-1 = experiment: Cytotoxicity against Homo sapiens (human) Caki1 cells assessed as growth inhibition at 10 uM after 48 hr by coulter counter analysis; details: CAKI-1, 48 h, read-out: GI
ACHN = experiment: Cytotoxicity against Homo sapiens (human) ACHN cells assessed as growth inhibition at 10 uM after 48 hr by coulter counter analysis; details: read-out: GI
A498 = experiment: Cytotoxicity against Homo sapiens (human) A498 cells assessed as growth inhibition at 10 uM after 48 hr by coulter counter analysis; details: A498, 48 h, read-out: GI
MDA-MB-468 = experiment: Cytotoxicity against Homo sapiens (human) MDA-MB-468 cells assessed as growth inhibition at 10 uM after 48 hr by coulter counter analysis; details: MDA-MB-468, 48 h, read-out: GI
BT-549 = experiment: Cytotoxicity against Homo sapiens (human) BT549 cells assessed as growth inhibition at 10 uM after 48 hr by coulter counter analysis; details: BT-549, 48 h, read-out: GI
MDA-MB-231 = experiment: Cytotoxicity against Homo sapiens (human) MDA-MB-231 cells assessed as growth inhibition at 10 uM after 48 hr by coulter counter analysis; details: MDA-MB-231, 48 h, read-out: GI
DU-145 = experiment: Cytotoxicity against Homo sapiens (human) DU145 cells assessed as growth inhibition at 10 uM after 48 hr by coulter counter analysis; details: DU-145, 48 h, read-out: GI
PC-3 = experiment: Cytotoxicity against Homo sapiens (human) PC3 cells assessed as growth inhibition at 10 uM after 48 hr by coulter counter analysis; details: PC-3, 48 h, read-out: GI
MDA-MB-435 = experiment: Cytotoxicity against Homo sapiens (human) MDA-MB-435 cells assessed as growth inhibition at 10 uM after 48 hr by coulter counter analysis; details: MDA-MB-435, 48 h, read-out: GI
M14 = experiment: Cytotoxicity against Homo sapiens (human) M14 cells assessed as growth inhibition at 10 uM after 48 hr by coulter counter analysis; details: M14, 48 h, read-out: GI
LOX IMVI = experiment: Cytotoxicity against Homo sapiens (human) LOXIMVI cells assessed as growth inhibition at 10 uM after 48 hr by coulter counter analysis; details: read-out: GI
U-251 = experiment: Cytotoxicity against Homo sapiens (human) U251 cells assessed as growth inhibition at 10 uM after 48 hr by coulter counter analysis; details: U-251, 48 h, read-out: GI
SNB-75 = experiment: Cytotoxicity against Homo sapiens (human) SNB75 cells assessed as growth inhibition at 10 uM after 48 hr by coulter counter analysis; details: SNB-75, 48 h, read-out: GI
SNB-19 = experiment: Cytotoxicity against Homo sapiens (human) SNB19 cells assessed as growth inhibition at 10 uM after 48 hr by coulter counter analysis; details: SNB-19, 48 h, read-out: GI
SF-295 = experiment: Cytotoxicity against Homo sapiens (human) SF295 cells assessed as growth inhibition at 10 uM after 48 hr by coulter counter analysis; details: SF-295, 48 h, read-out: GI
SF-539 = experiment: Cytotoxicity against Homo sapiens (human) SF539 cells assessed as growth inhibition at 10 uM after 48 hr by coulter counter analysis; details: SF-539, 48 h, read-out: GI
SF-268 = experiment: Cytotoxicity against Homo sapiens (human) SF268 cells assessed as growth inhibition at 10 uM after 48 hr by coulter counter analysis; details: SF-268, 48 h, read-out: GI
KM12 = experiment: Cytotoxicity against Homo sapiens (human) KM12 cells assessed as growth inhibition at 10 uM after 48 hr by coulter counter analysis; details: KM12, 48 h, read-out: GI
SW-620 = experiment: Cytotoxicity against Homo sapiens (human) SW620 cells assessed as growth inhibition at 10 uM after 48 hr by coulter counter analysis; details: SW-620, 48 h, read-out: GI
HCC 2998 = experiment: Cytotoxicity against Homo sapiens (human) HCC2998 cells assessed as growth inhibition at 10 uM after 48 hr by coulter counter analysis; details: HCC 2998, 48 h, read-out: GI
[1] = Cytotoxicity against Homo sapiens (human) NCI-ADR-RES cells assessed as growth inhibition at 10 uM after 48 hr by coulter counter analysis; details: read-out: GI
OVCAR-8 = experiment: Cytotoxicity against Homo sapiens (human) OVCAR8 cells assessed as growth inhibition at 10 uM after 48 hr by coulter counter analysis; details: OVCAR-8, 48 h, read-out: GI
OVCAR-5 = experiment: Cytotoxicity against Homo sapiens (human) OVCAR5 cells assessed as growth inhibition at 10 uM after 48 hr by coulter counter analysis; details: OVCAR-5, 48 h, read-out: GI
UACC-62 = experiment: Cytotoxicity against Homo sapiens (human) UACC62 cells assessed as growth inhibition at 10 uM after 48 hr by coulter counter analysis; details: UACC-62, 48 h, read-out: GI
SK-MEL-5 = experiment: Cytotoxicity against Homo sapiens (human) SK-MEL-5 cells assessed as growth inhibition at 10 uM after 48 hr by coulter counter analysis; details: SK-MEL-5, 48 h, read-out: GI
COLO 205 = experiment: Cytotoxicity against Homo sapiens (human) COLO205 cells assessed as growth inhibition at 10 uM after 48 hr by coulter counter analysis; details: COLO 205, 48 h, read-out: GI
NCI-H322M = experiment: Cytotoxicity against Homo sapiens (human) NCI-H322M cells assessed as growth inhibition at 10 uM after 48 hr by coulter counter analysis; details: read-out: GI
HOP-62 = experiment: Cytotoxicity against Homo sapiens (human) HOP62 cells assessed as growth inhibition at 10 uM after 48 hr by coulter counter analysis; details: HOP-62, 48 h, read-out: GI
EKVX = experiment: Cytotoxicity against Homo sapiens (human) EKVX cells assessed as growth inhibition at 10 uM after 48 hr by coulter counter analysis; details: read-out: GI
A549 = experiment: Cytotoxicity against Homo sapiens (human) A549 cells assessed as growth inhibition at 10 uM after 48 hr by coulter counter analysis; details: A549, 48 h, read-out: GI

Row | SMILES | inhibition of growth at 10 µM (UO-31) [%] | inhibition of growth at 10 µM (TK-10) [%] | inhibition of growth at 10 µM (SN12C) [%] | inhibition of growth at 10 µM (RXF 393) [%] | inhibition of growth at 10 µM (CAKI-1) [%] | inhibition of growth at 10 µM (ACHN) [%] | inhibition of growth at 10 µM (A498) [%] | inhibition of growth at 10 µM (MDA-MB-468) [%] | inhibition of growth at 10 µM (BT-549) [%] | inhibition of growth at 10 µM (MDA-MB-231) [%] | inhibition of growth at 10 µM (DU-145) [%] | inhibition of growth at 10 µM (PC-3) [%] | inhibition of growth at 10 µM (MDA-MB-435) [%] | inhibition of growth at 10 µM (M14) [%] | inhibition of growth at 10 µM (LOX IMVI) [%] | inhibition of growth at 10 µM (U-251) [%] | inhibition of growth at 10 µM (SNB-75) [%] | inhibition of growth at 10 µM (SNB-19) [%] | inhibition of growth at 10 µM (SF-295) [%] | inhibition of growth at 10 µM (SF-539) [%] | also measured
1 | O=C(CSc1nc2ccccc2c(=O)n1CCc1ccccc1)c1ccc(F)cc1 | 42 | < 10 | < 10 | < 10 | 21 | 24 | < 10 | < 10 | < 10 | 23 | < 10 | 13 | < 10 | < 10 | < 10 | 19 | < 10 | < 10 | < 10 | 13 | inhibition of growth at 10 µM (SF-268): 25%; inhibition of growth at 10 µM (KM12): < 10%; inhibition of growth at 10 µM (SW-620): < 10%; inhibition of growth at 10 µM (HCC 2998): < 10%; inhibition of growth at 10 µM [1]: < 10%; inhibition of growth at 10 µM (OVCAR-8): 31%; inhibition of growth at 10 µM (OVCAR-5): < 10%; inhibition of growth at 10 µM (UACC-62): < 10%; inhibition of growth at 10 µM (SK-MEL-5): < 10%; inhibition of growth at 10 µM (COLO 205): < 10%; inhibition of growth at 10 µM (NCI-H322M): 13%; inhibition of growth at 10 µM (HOP-62): < 10%; inhibition of growth at 10 µM (EKVX): 16%; inhibition of growth at 10 µM (A549): 11%
2 | O=c1c2ccccc2nc(SCc2nnc(S)n2Cc2ccccc2)n1CCc1ccccc1 | < 10 | < 10 | < 10 | < 10 | < 10 | < 10 | < 10 | < 10 | < 10 | 28 | < 10 | 12 | < 10 | < 10 | 14 | < 10 | < 10 | < 10 | < 10 | < 10 | inhibition of growth at 10 µM (SF-268): < 10%; inhibition of growth at 10 µM (KM12): < 10%; inhibition of growth at 10 µM (SW-620): < 10%; inhibition of growth at 10 µM (HCC 2998): < 10%; inhibition of growth at 10 µM [1]: 16%; inhibition of growth at 10 µM (OVCAR-8): < 10%; inhibition of growth at 10 µM (OVCAR-5): < 10%; inhibition of growth at 10 µM (UACC-62): 17%; inhibition of growth at 10 µM (SK-MEL-5): < 10%; inhibition of growth at 10 µM (COLO 205): < 10%; inhibition of growth at 10 µM (NCI-H322M): < 10%; inhibition of growth at 10 µM (HOP-62): < 10%; inhibition of growth at 10 µM (EKVX): 17%; inhibition of growth at 10 µM (A549): 12%
3 | CCn1c(S)nnc1CSc1nc2ccccc2c(=O)n1CCc1ccccc1 | 24 | < 10 | < 10 | < 10 | < 10 | 15 | < 10 | 15 | 28 | 18 | < 10 | 17 | 16 | 12 | 26 | < 10 | < 10 | < 10 | < 10 | < 10 | inhibition of growth at 10 µM (SF-268): < 10%; inhibition of growth at 10 µM (KM12): < 10%; inhibition of growth at 10 µM (SW-620): < 10%; inhibition of growth at 10 µM (HCC 2998): < 10%; inhibition of growth at 10 µM [1]: 27%; inhibition of growth at 10 µM (OVCAR-8): 11%; inhibition of growth at 10 µM (OVCAR-5): < 10%; inhibition of growth at 10 µM (UACC-62): 15%; inhibition of growth at 10 µM (SK-MEL-5): 18%; inhibition of growth at 10 µM (COLO 205): < 10%; inhibition of growth at 10 µM (NCI-H322M): 27%; inhibition of growth at 10 µM (HOP-62): 22%; inhibition of growth at 10 µM (EKVX): 15%; inhibition of growth at 10 µM (A549): 16%
4 | O=C(CSc1nc2ccccc2c(=O)n1CCc1ccccc1)c1ccccc1 | 22 | < 10 | < 10 | < 10 | 22 | < 10 | 46 | 14 | < 10 | 11 | < 10 | 14 | < 10 | < 10 | < 10 | 11 | 18 | < 10 | 18 | < 10 | inhibition of growth at 10 µM (SF-268): < 10%; inhibition of growth at 10 µM (KM12): < 10%; inhibition of growth at 10 µM (SW-620): < 10%; inhibition of growth at 10 µM (HCC 2998): < 10%; inhibition of growth at 10 µM [1]: < 10%; inhibition of growth at 10 µM (OVCAR-8): 15%; inhibition of growth at 10 µM (OVCAR-5): < 10%; inhibition of growth at 10 µM (UACC-62): 16%; inhibition of growth at 10 µM (SK-MEL-5): < 10%; inhibition of growth at 10 µM (COLO 205): < 10%; inhibition of growth at 10 µM (NCI-H322M): < 10%; inhibition of growth at 10 µM (HOP-62): < 10%; inhibition of growth at 10 µM (EKVX): 18%; inhibition of growth at 10 µM (A549): 18%
5 | CSc1nc2ccccc2c(=O)n1CCc1ccccc1 | 37 | < 10 | < 10 | 30 | < 10 | 34 | 18 | 84 | < 10 | 30 | < 10 | 33 | 47 | < 10 | 11 | 12 | < 10 | < 10 | < 10 | < 10 | inhibition of growth at 10 µM (SF-268): < 10%; inhibition of growth at 10 µM (KM12): 28%; inhibition of growth at 10 µM (SW-620): 12%; inhibition of growth at 10 µM (HCC 2998): < 10%; inhibition of growth at 10 µM [1]: 18%; inhibition of growth at 10 µM (OVCAR-8): < 10%; inhibition of growth at 10 µM (OVCAR-5): < 10%; inhibition of growth at 10 µM (UACC-62): 12%; inhibition of growth at 10 µM (SK-MEL-5): 19%; inhibition of growth at 10 µM (COLO 205): 19%; inhibition of growth at 10 µM (NCI-H322M): < 10%; inhibition of growth at 10 µM (HOP-62): 12%; inhibition of growth at 10 µM (EKVX): 29%; inhibition of growth at 10 µM (A549): 12%
